One data set has as its system human hepatoma G2 cells. The experiment in a line: Cytotoxicity assay (XTT colorimetric), Hep G2. It counts as cell-based. The settings on record: Homo sapiens, HepG2; 48 h of drug exposure.
In a further data set the test system is rat glioma C6 cells. The experiment in a line: Cytotoxicity assay (XTT colorimetric), C6 cells. It counts as cell-based. The settings on record: Rattus norvegicus, C6; 48 h of drug exposure.
Data set [1] deals with transcriptional activity of hTERT. The experiment in a line: SEAP reporter assay of hTERT expression, PhTERT-SEAP (hTERT-BJ1). The class given is cell-based, human. The settings on record: Homo sapiens, hTERT-BJ1, read-out: Relative SEAP activity (%). In short, it runs like this:
(§1)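 We treated G418-selected reporter cells with varying drug amounts for 24 h and measured SEAP in the heat-inactivated medium as the rate of 405 nm absorbance increase.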
Background: In a reporter assay the amount or activity of a reporter protein is the signal.

The test system is the same in data set [2]. Description: SEAP reporter assay of hTERT expression, PhTERT-SEAP (H1299). The class given is cell-based, human. The note with it: Homo sapiens, NCI-H1299, H1299, read-out: Relative SEAP activity (%). In short, it runs like this:
as §1

For a further data set, the system named is CMV promoter. The experiment in a line: SEAP reporter assay of CMV promoter activity, PCMV-SEAP (hTERT-BJ1). The note with it: Homo sapiens, read-out: Relative SEAP activity (%). It counts as cell-based.
Data set [3] is described as follows: MTT relative viability, PCMV-SEAP (hTERT-BJ1) cells. It counts as cell-based. The note with it: human, stable PCMV-SEAP reporter clone. The source says:
Culture media were changed every 3 days. […] The stable clones were selected using G418.

Data set [4] in a line: MTT relative viability, PhTERT-SEAP (H1299) cells. The note with it: human.
A short description of data set [5]: MTT relative viability, PhTERT-SEAP (hTERT-BJ1) cells. The note with it: human.
Data set [6] relates to iron-induced lipid peroxidation in rat brain homogenates. The experiment in a line: Iron-induced lipid peroxidation in rat brain homogenates. The settings on record: 10 mM; relative percentage of inhibition (Table 1).

Each structure is given as a SMILES string.

Molecule `Nc1ccccc1Sc1cccc2c1C(=O)c1cccc(Sc3ccccc3N)c1C2=O` [IIf, 1,5-Bis(o-aminophenylthio)-Anthraquinone] returned a melting point of 283 to 284 °C. This molecule also returned an IC50 with human hepatoma G2 cells of 34 ± 1.7 µM. In the data set with rat glioma C6 cells, this molecule displayed an IC50 of 15.1 ± 1.7 µM. In addition, in [1], the activity at 2.2 µM was determined as 136 ± 17.5%, the activity at 22 µM worked out at 141 ± 18.2% and the activity at 220 µM stood at 115 ± 29.7%. In data set [2], the activity at 2.2 µM is 108 ± 12.2%, the activity at 22 µM turned out to be 96 ± 8.4% and the activity at 220 µM came to 59 ± 6.6%. For the same molecule, in the data set with CMV promoter (2.2 μM), the activity at 2.2 µM is 103 ± 8%. Besides, the activity at 22 µM with CMV promoter (22 μM) worked out at 102 ± 10%. Moreover, in the data set on CMV promoter (220 μM), the activity at 220 µM worked out at 122 ± 8%. The viability at 48 h, 2.2 µM in [3] (2.2 μM) amounted to 108 ± 9%. The viability at 48 h, 22 µM in data set [3] (22 μM) was found to be 109 ± 4%. Besides, the viability at 48 h, 220 µM in data set [3] (220 μM) was found to be 48 ± 6%. Further, in data set [4], the viability at 48 h, 2.2 µM was 94 ± 3.5%; the viability at 48 h, 22 µM stood at 50 ± 3.3%; the viability at 48 h, 220 µM was found to be 14 ± 2.5%. Further, in data set [5], the viability at 48 h, 2.2 µM is 103 ± 7.9%; the viability at 48 h, 22 µM was determined as 107 ± 5.5%; the viability at 48 h, 220 µM was determined as 25 ± 3.3%. Besides, the “LP (%) (10 mM)” value in data set [6] came out at 5 ± 0.5%.
With `Nc1ccc(Sc2cccc3c2C(=O)c2cccc(Sc4ccc(N)cc4)c2C3=O)cc1` [IIh, 1,5-Bis(p-aminophenylthio)-Anthraquinone], the melting point lay within 364 to 365 °C. Also, the IC50 with human hepatoma G2 cells came to 17.4 ± 1.5 µM. Further, in the data set on rat glioma C6 cells, the IC50 stood at 0.05 ± 0.01 µM. In data set [1], the activity at 2.2 µM is 97 ± 17.9%, the activity at 22 µM amounted to 97 ± 14.5% and the activity at 220 µM turned out to be 26 ± 12.6%. Besides, in data set [2], the activity at 2.2 µM turned out to be 100 ± 5.7%, the activity at 22 µM worked out at 95 ± 2.6% and the activity at 220 µM is 84 ± 5.3%. Moreover, in data set [4], the viability at 48 h, 2.2 µM was 103 ± 4.3%; the viability at 48 h, 22 µM was found to be 76 ± 4%; the viability at 48 h, 220 µM was 42 ± 2.3%. For the same molecule, in data set [5], the viability at 48 h, 2.2 µM came to 86 ± 11.9%; the viability at 48 h, 22 µM came out at 65 ± 12.6%; the viability at 48 h, 220 µM is 56 ± 13.8%. Further, the “LP (%) (10 mM)” value in [6] turned out to be 20 ± 1.4%.
For `CCSc1cccc2c1C(=O)c1cccc(SCC)c1C2=O` [IIa, 1,5-Bis(ethylthio)-anthraquinone], the melting point was in the range of 235 to 236 °C. For the same molecule, in the data set on human hepatoma G2 cells, the midpoint of inhibition, the IC50, lay at 12.2 ± 1.1 µM. For the same molecule, the IC50 in the data set with rat glioma C6 cells was found to be 0.02 ± 0.01 µM. Also, the activity at 3 µM in data set [1] (3.0 μM) is 109 ± 22.4%. In addition, the activity at 30 µM in data set [1] (30 μM) is 110 ± 14.3%. Besides, in [1] (300 μM), the activity at 300 µM is 104 ± 20.6%. Further, the activity at 3 µM in [2] (3.0 μM) was 134 ± 14.4%. Besides, the activity at 30 µM in data set [2] (30 μM) was determined as 111 ± 7.7%. Further, in data set [2] (300 μM), the activity at 300 µM turned out to be 99 ± 14.3%. In [4], the viability at 48 h, 3 µM amounted to 111 ± 2.8%; the viability at 48 h, 30 µM was found to be 44 ± 7.3%; the viability at 48 h, 300 µM came to 25 ± 2.3%. Further, in [5], the viability at 48 h, 3 µM turned out to be 112 ± 9.2%; the viability at 48 h, 30 µM stood at 98 ± 12.3%; the viability at 48 h, 300 µM was found to be 34 ± 18.1%. In addition, the “LP (%) (10 mM)” value in data set [6] came out at 83 ± 2.2%.

The IC50 is the concentration at which inhibition is half-maximal. The low end stands for higher potency, the high end for lower potency. As a reminder, the viability is a read-out of living cells in per cent, often relative to untreated cells. For orientation: melting point means the temperature, or range, at which the solid turns liquid.

The values are drawn from patent US20050009924A1 (priority 2003, published 2005).
